Source: patent US9868763B2, “Modulators of protease activated receptors” (The University of Queensland, priority 2011, dated 2018)

Assays:
[1] = system: 2furoyl-LIGRLO-NH2-induced paw oedema; experiment: PAR2 agonist-induced paw oedema; format: in vivo, Wistar rat; conditions: s.c.; 52 10 mg/kg, ENMD-1068 100 mg/kg; agonist 350 μg/paw
Method: The methods used are based on those previously described (Kelso, E. B., et al. Arthritis Rheum 2007, 56, 765-71; Kelso, E. B., et al. J Pharmacol Exp Ther 2006, 316, 1017-24; and Vergnolle, N. J Immunol 1999, 163, 5064-9). Male Wistar rats (n=3 per group) are used. Briefly, rats are given either 5 or 10 mg/kg of a compound of the present invention (p.o. via gavage in olive oil, approx. 500 μL, weight adjusted). Control animals receive only olive oil (500 μL p.o.). Two hours later, the PAR2 agonist 2-furoyl-LIGRLO (350 μg/paw in saline, 100 μL) is injected into the plantar surface (i.pl.) of the right paw pad using a 30 G needle. The left paw acts as a control, receiving saline only. Paw thickness and width are measured after 30 minutes and hourly using digital calipers (World Precision Instruments, USA) and swelling is calculated in area (mm^2; thickness multiplied by width) and expressed as a percentage change from baseline of each individual paw.
Based on previous methods (Kelso E B et al., J Pharmacol Exp Ther 2006, 316(3):1017-24; Suen J Y et al., Br J Pharmacol 2011, doi: 10.1111/j.1476-5381.2011.01610.x.), PAR2 antagonist 52 (10 mg/kg s.c.; n=4), ENMD-1068 (100 mg/kg s.c.; n=4) or vehicle control (DMSO s.c.; n=2) were administered to male Wistar rats. Baseline paw thickness and width were measured using digital calipers (World Precision Instruments, USA) expressed in area (mm^2; thickness×width). Fifteen minutes later, 2Furoyl-LIGLRO-NH2 (350 μg/paw in 100 μL saline) was injected into of the right hind paw pad (intraplantar, i.pl.). The left hind paw acted as a control, receiving saline only. In a separate experiment, vehicle (500 μL olive oil) versus PAR2 antagonist 52 (10 mg/kg p.o. in 500 μL olive oil) only were administered orally to two groups of rats (4 per group). Two hours later, β-tryptase (human recombinant lung, 20 μg in 100 μL saline) was injected into the right hind paw pad (vehicle in left for control) of all animals in each group. In all experiments, paw swelling was measured and expressed in area (mm^2; thickness×width) and plotted as % change from baseline of each individual paw.

PAR2 [2] = biological target: T1, PAR2 (Homo sapiens, UniProt P55085); experiment: Colonocyte modulation: intracellular calcium mobilization in HT29 cells; format: cell-based; design: endogenous in cells; host or cells: HT29 (human colorectal adenocarcinoma); conditions: HT29 colonocytes, 15 min before 2Furoyl-LIGRLO-NH2
T1 sequence (P55085 26-397): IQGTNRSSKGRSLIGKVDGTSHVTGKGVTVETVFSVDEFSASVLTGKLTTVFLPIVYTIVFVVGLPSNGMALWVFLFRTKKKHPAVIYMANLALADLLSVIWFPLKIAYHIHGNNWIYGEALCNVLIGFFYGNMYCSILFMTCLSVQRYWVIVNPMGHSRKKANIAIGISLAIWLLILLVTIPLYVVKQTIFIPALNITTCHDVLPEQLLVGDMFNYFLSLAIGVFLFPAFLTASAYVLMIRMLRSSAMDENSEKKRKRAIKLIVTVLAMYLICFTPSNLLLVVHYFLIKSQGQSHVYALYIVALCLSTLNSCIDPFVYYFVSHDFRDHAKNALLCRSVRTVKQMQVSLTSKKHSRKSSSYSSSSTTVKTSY
Method: Human colorectal adenocarcinoma (HT29) cells were incubated with a calcium binding dye ([…]) buffer for 1 h at 37° C. […] Intracellular calcium mobilization was measured by differences in fluorescence plotted against corresponding antagonist concentrations, enabling the determination of antagonist potency.

[3] = system: human monocyte derived macrophages (HMDMs); experiment: Palmitic acid stimulation of human monocyte derived macrophages; format: cell-based
Method: To investigate if PAR2 is specifically linked to macrophage inflammation, the effect of palmitic acid on mRNA levels of PARs on human monocyte derived macrophages (HMDMs) was measured (FIG. 12). […] The increase of PAR2 mRNA in HMDM in the presence of palmitic acid was dose-dependent (FIG. 12B). Fold change in PAR2 was calculated relative to untreated sample. FIGS. 12C and D illustrate that palmitic acid stimulates proinflammition cytokines, IL-6 and IL-8, secretion from HMDM. Error bars are means±SEM; *P<0.05, **P<0.01, ***P<0.001.

MIN6 beta cells = experiment: Glucose-stimulated insulin secretion (GSIS); format: cell-based, mouse; conditions: 52 as pre-treatment before 2f-LIGRLO-NH2
Method: Rat pancreas and mouse MIN6 beta cells were cultured in DMEM (25 mM glucose) supplemented with 15% fetal calf serum, 10 U/mL penicillin, 10 U/mL streptomycin, 2 mM L-glutamine and […] 2-mercaptoethanol. MIN6 beta cells were passaged and harvested using non-enzymatic cell dissociation solution (Sigma-Aldrich). Glucose-stimulated insulin secretion (GSIS) was performed as described next. MIN6 beta cells were seeded at 0.8×106 mL in a 96-well plate and cultured for 48 h. Cells were washed twice with glucose-free Krebs buffer (NaCl 119 mM, KCl 4.74 mM, CaCl2 2.54 mM, MgCl2 1.19 mM, KH2PO4 1.19 mM, NaHCO3 25 mM, HEPES (pH 7.4) 10 mM and 0.05% BSA). Cells were pre-treated with compound 52 for 30 min with Krebs buffer supplemented with 2.5 mM glucose. After incubation, cells were washed twice with glucose-free Krebs buffer. Glucose (2.5 mM and 25 mM) and compounds were added at specified concentration and incubated for 1 h. Supernatants were collected and insulin concentrations were determined by ELISA (Abeam).

PAR2 [4] = biological target: T2, PAR2 (Mus musculus, UniProt P55086); experiment: Intracellular calcium mobilization in MIN6 beta cells; format: cell-based; conditions: concentration-dependent
T2 construct: endogenous in cells; host or cells: MIN6 (mouse pancreatic beta cell line)
T2 sequence (P55086 26-399): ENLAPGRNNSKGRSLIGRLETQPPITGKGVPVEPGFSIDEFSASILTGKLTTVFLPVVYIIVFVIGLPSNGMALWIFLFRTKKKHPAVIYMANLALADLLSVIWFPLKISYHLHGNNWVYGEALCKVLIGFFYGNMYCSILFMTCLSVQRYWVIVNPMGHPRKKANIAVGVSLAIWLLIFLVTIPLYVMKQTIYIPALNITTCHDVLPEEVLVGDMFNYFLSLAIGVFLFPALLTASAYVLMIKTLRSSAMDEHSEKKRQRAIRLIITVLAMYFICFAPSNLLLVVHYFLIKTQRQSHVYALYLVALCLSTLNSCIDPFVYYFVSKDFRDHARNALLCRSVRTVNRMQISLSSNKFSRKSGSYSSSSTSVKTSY
Method: Results: Pathogenesis of pancreatic dysfunction is linked to chronic nutritional surplus and elevated fatty acids, so in vivo and in vitro effects of compound 52 were evaluated on rat pancreas and mouse MIN6 beta cells. […] PAR2 agonists and compound 52 were further evaluated in vitro for glucose-stimulated insulin secretion (GSIS) and intracellular calcium mobilization in mouse MIN6 beta cells.

CC(C)CC(=O)N1CCN(C(=O)CCCCCN)CC1 [ENMD-1068, N1-3-methylbutyryl-N4-6-aminohexanoyl-piperazine, reference compound]
paw oedema induced by 2furoyl-LIGRLO-NH2 [1]: had no effect | IC50 (PAR2 [2]): 5 mM

CCCCCCCCCCCCCCCC(=O)O [palmitic acid]
IL-6 and IL-8 secretion from HMDM [3]: stimulates | increase in mRNA concentrations of PAR2 ([3]; HMDM, concentration dependent, relative to untreated): < 20 fold

2f-LIGRLO-NH2 [reference compound]
glucose-stimulated insulin secretion (MIN6 beta cells): inhibited glucose stimulated insulin sensitivity | intracellular calcium release in MIN6 beta cells (PAR2 [4]): activated intracellular calcium release
